# Patent US20260193647A1, “MIRNA-BASED CANCER THERAPY WITH A TUMOR-NAVIGATING PEPTIDE” (The Board of Trustees of the Universities of Illinois, priority 2022, published 2026)
# Columns and labels:
# miR-20a [1] = test: miR-20a expression levels by stem loop qPCR in treated cells; assay type: cell-based, human; conditions: 10 nM, 24 hr
# From the text: (§1) Micro RNA enriched fraction was extracted using the miRNeasy Mini Kit (Qiagen, Catalog #217004) following the manufacturer's instructions. Stem loop real-time qPCR was used to analyze miRNA expression. We designed miR-20a stem loop RT primers and amplification primers according to a previously described method 79. cDNA was synthesized from extracted RNA using unique stem loop RT primers. The sequence of the stem loop primer for miR-20a was 5′-[…]-3′ (SEQ ID NO:7). Reverse transcriptase reactions contained the following reagents: 10 ng of RNA sample, 60 nM stem-loop RT primer, 1×RT buffer, 0.25 mM dNTP, and 4 U/μl reverse transcriptase. Reactions were performed by incubation at 16° C. for 30 min, 42° C. for 30 min and 85° C. for 5 min. Real-time PCR (7300 Real time PCR Systems, Applied Biosystems, CA) was performed using the specific forward primer for miR-20a (5′-[…]-3′ (SEQ ID NO:8)) and a universal reverse primer (5′-GTGCA GGGTC CGAGGT-3′ (SEQ ID NO:9)). The 20-μl PCR mixture included 1×SYBR Premix (Invitrogen), 2 μl of RT products and each forward and reverse primer at 10 nM. Reactions were performed by incubation in a 96-well plate at 95° C. for 30 sec, followed by 35 cycles of 95° C. for 30 sec and 60° C. for 30 sec. U6 was used as an internal control to normalize the level of target miRNAs. The results were verified by performing PCR using M13 modified forward and reverse primers specific to stem loop sequence. The PCR products were visualized in 2% agarose gels and DNA-sequence was confirmed. Human tumor and serum samples were obtained from patients who had signed informed consent and the institutional review board approval was obtained in Pediatric Brain Tumor Consortium (PBTC-041) participating sites.
# CHLA-200 cells [2] = assay type: cell-based, human; conditions: 24 hr; read-out: IC50 (cell viability)
# Procedure: (§3) Cell viability was evaluated by a CCK-8 assay (Dojindo, Japan). Cells were seeded at a density of 4,000 cells per well in 100 μl of growth medium in 96-well plates and grown overnight. Then, the cells were exposed to antisense miR-20a alone, p28 alone or negative control or AmiR20-p28 over a range of concentrations and incubated for 24 hr. According to the manufacturer's instructions, 10 μl of CCK-8 solution was added to each well, followed by incubation for 1 hr at 37° C. The absorbance at 450 nm was determined by a multiplate reader.
# (§4) Cell viability (%)=Abs(sample)−Abs(blank)/Abs(no treatment)−Abs(blank)×100
# LN-229 cells = test: CCK-8 cell viability assay, LN-229; assay type: cell-based, human; conditions: 24 hr
# Procedure: as §3, §4
# SJ-GBM2 cells [3] = test: Annexin V/PI flow cytometric apoptosis assay, SJ-GBM2; assay type: cell-based, human; conditions: 10 nM, 24 h
# Procedure: (§2) Cells were seeded into 10-cm dishes and cultured overnight. Then, the cells were treated with 10 nM antisense miR-20a alone, p28 alone or AmiR20-p28 for 24 hr. Cells were washed with 1×PBS, detached with TrypleE (Invitrogen). and collected by centrifugation. Cells were washed and resuspended with 1× Annexin binding buffer (Life Technologies, catalog #V13242), and the cell density was maintained at 10^6 cells/ml. Subsequently, 5 μl of Annexin-V was added to 100 μl of the cell suspension, and the mixture was incubated for 15 min at room temperature. The cells were washed and incubated with 5 μl of PI for an additional 15 min on ice, washed and resuspended in 200 μl of buffer. Cells without treatment were used as controls. After washing, cells were subjected to flow cytometry (Gallios flow cytometer) and analyzed with Kaluza software to give the proportions of dead (top left quadrant), late apoptotic (top right quadrant), early apoptotic (bottom right quadrant) and viable (bottom left quadrant) cells.
# CHLA-200 cells [4] = test: Annexin V/PI flow cytometric apoptosis assay, CHLA-200; assay type: cell-based, human; conditions: 10 nM, 24 h
# Procedure: as §2
# astrocytes = test: Annexin V/PI flow cytometric apoptosis assay, astrocytes; assay type: cell-based, human; conditions: 10 nM, 24 h
# Procedure: as §2
# miR-20a [5] = test: miR-20a levels in resected tumor tissues of treated mice; assay type: in vivo; conditions: 1 mg/kg 3 times a week for one week; vs PBS-treated mice
# From the text: Micro RNA enriched fraction was extracted using the miRNeasy Mini Kit (Qiagen, Catalog #217004) following the manufacturer's instructions. Stem loop real-time qPCR was used to analyze miRNA expression. We designed miR-20a stem loop RT primers and amplification primers according to a previously described method 79. cDNA was synthesized from extracted RNA using unique stem loop RT primers. The sequence of the stem loop primer for miR-20a was 5′-[…]-3′ (SEQ ID NO:7). Reverse transcriptase reactions contained the following reagents: 10 ng of RNA sample, 60 nM stem-loop RT primer, 1×RT buffer, 0.25 mM dNTP, and 4 U/μl reverse transcriptase. Reactions were performed by incubation at 16° C. for 30 min, 42° C. for 30 min and 85° C. for 5 min. Real-time PCR (7300 Real time PCR Systems, Applied Biosystems, CA) was performed using the specific forward primer for miR-20a (5′-[…]-3′ (SEQ ID NO:8)) and a universal reverse primer (5′-GTGCA GGGTC CGAGGT-3′ (SEQ ID NO:9)). […]
# A quantitative analysis using human-specific Alu sequence (hAlu) was performed on samples collected from the isolated brain tissues. […] The amount of hAlu and mGAPDH DNA in the tissue was calculated by comparison with a standard curve, and the calculated amount of hAlu DNA was normalized against the relative quantity of mGAPDH. […]
# miR-20a [6] = test: Circulating miR-20a in sera of treated mice; assay type: in vivo; conditions: early-phase treatment group, 1 mg/kg; vs tumor-free mice (P=0.78)
# From the text: as §1, with “The results were verified by performing PCR using M13 modified forward and reverse primers specific to stem loop sequence. The PCR products were visualized in 2% agarose gels and DNA-sequence was confirmed. Human tumor and serum samples were obtained from patients who had signed informed consent and the institutional review board approval was obtained in Pediatric Brain Tumor Consortium (PBTC-041) participating sites.” left out
# [7] = set-up: species or system mice; conditions: mouse, in vivo
# Procedure: Collected samples were fixed with buffered 3.7% formalin (Anatech) for 24 hr. Formalin was replaced with 70% ethanol following fixation. Samples were paraffin-embedded, and blocks were cut into 4 μm-thick sections and mounted onto slides which were processed for H&E staining. H&E-stained slides were analyzed by a pathologist blinded to the experimental groups.
# Alanine transaminase (ALT) activity was measured using ALT assay kits (Sigma, #MAK052) and serum aspartate transaminase (AST) activities was measured using AST assay kits (Sigma, #MAK055) following the manufacturer's instructions. Briefly, serum samples at different dilutions, were reacted with ALT or AST reaction mixture and plated on 96-well plate, followed by reading at A450. The final calculations were done by comparing the sample readings with that of standard curve (pyruvate standards for ALT and glutamate standards for AST).
# SJ-GBM2 cells [8] = conditions: read-out: IC50 (cell viability); 24 hr
# Procedure: as §3, §4
substance,measurement,setting,value
AmiR20-p28: BBB-permeable tumor-navigating CPP p28 (Cys-p28) covalently linked to 2′ O-methyl antisense miR-20a (5′-maleimide),miR-20a expression levels reduced by,miR-20a [1]; CHLA-200 cells,96%
same,miR-20a expression levels reduced by,miR-20a [1]; LN-229 cells,84%
same,miR-20a expression levels reduced by,miR-20a [1]; SJ-GBM2 cells,94%
same,miR-20a levels,miR-20a [1]; normal human astrocytes,not significantly altered
same,IC50,CHLA-200 cells [2],11 nM
same,IC50,LN-229 cells,170 nM
same,effect on cell viability,LN-229 cells; compared to pGBM,less extensive
same,increase in apoptotic cells by,SJ-GBM2 cells [3],16%
same,apoptotic cells increased by,CHLA-200 cells [4],14%
same,apoptotic cells after treatment,astrocytes,0.5%
same,miR-20a levels in tumor tissues,miR-20a [5],significant decrease in miR-20a levels
same,serum miR-20a level,miR-20a [6],not significantly different from the basal level in the tumor-free mice
same,"histology of heart, lung, liver, spleen, and kidney",[7],no AmiR20-p28-related differences in histology
same,"adverse effects (hepatotoxicity assay, hemolysis assay, histological examination)","[7]; iv, 1 mg/kg",without apparent adverse effects
same,IC50,SJ-GBM2 cells [8],8 nM
